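Values below derive from 48-hour exposures of cells grown in 96-well plates, with endpoints linearly interpolated between the two concentrations bracketing the appropriate inhibition level. At the GI50, growth is halved.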 Calls of active or inactive are those of the source. No stated cut-off is given here; in the data, active = GI50 up to about 1.1 µM and inactive = higher. A value given as a limit tells only on which side of the number the result lay.

Some test systems named below: A549; HCC 2998; HCT-15; MOLT-4; NCI-H226; NCI-H460; SF-268; SF-539; SN12C; SW-620; CCRF-CEM; EKVX; Hs-578T; MCF7; MDA-MB-231; T47D; RXF 393; BT-549.
Common to all, as to assay: inhibition of tumour cell growth, NCI panel, 48 h

On to `CCCCN(CCCC)C(=O)C(=O)C(C)C(=O)CC` (stereo not drawn), for which the GI50 with A549 is > 100 µM (inactive); with HCC 2998, > 100 µM (inactive); in the experiment on HCT-15, greater than 100 µM; with MOLT-4 it was > 100 µM (inactive); with NCI-H226, > 100 µM (inactive); with NCI-H460, > 100 µM (inactive). Further, the GI50 in the experiment on SF-268, in the experiment with SF-539, in the experiment with SN12C and with SW-620 was > 100 µM (inactive) each time.

In the case of `COc1ccc(C(=CCC(C)C2CCC3[C@@H]4C(OC(C)=O)CC5CC(OC(C)=O)CC[C@]5(C)C4CC(OC(C)=O)[C@]23C)c2ccc(OC)cc2)cc1` (stereo partly drawn), the GI50 with A549 is > 100 µM (inactive); in the experiment with CCRF-CEM it was 27.1 µM (inactive); in the experiment with EKVX, > 100 µM (inactive); with HCC 2998, > 100 µM (inactive); with HCT-15 it was 86.5 µM; in the experiment on Hs-578T, > 100 µM (inactive). The GI50 was 20.3 µM (inactive) in the experiment with MCF7; > 100 µM (inactive) in the experiment on MDA-MB-231; 17.1 µM (inactive) in the experiment on MOLT-4; 55.2 µM (inactive) in the experiment on NCI-H460; > 100 µM (inactive) in the experiment on SF-268; 97.7 µM (inactive) in the experiment on SF-539. The results for the GI50 with SN12C, in the experiment with SW-620 and in the experiment on T47D were > 100 µM (inactive), 91.4 µM (inactive) and 41 µM (inactive), respectively.

For the molecule `NC(=O)C(=CNC(=S)Nc1ccc(Cl)c(Cl)c1)C(N)=O`, the GI50 was > 100 µM (inactive) in the experiment with A549; > 80.4 µM (inactive) with CCRF-CEM; 65.9 µM (inactive) in the experiment with EKVX; 26.8 µM (inactive) in the experiment on HCC 2998; 45.1 µM with HCT-15; 30.3 µM (inactive) in the experiment on Hs-578T. In addition, the GI50 with MCF7 was > 52 µM (inactive); in the experiment on MDA-MB-231, > 100 µM (inactive); with MOLT-4 it was 48.3 µM (inactive); in the experiment with NCI-H226, 0.374 µM (active); with NCI-H460 it was > 100 µM (inactive); in the experiment with RXF 393 it was > 49.9 µM (inactive). Also, the GI50 in the experiment with SF-268 was > 90.8 µM (inactive); in the experiment on SF-539, 26.7 µM (inactive); with SN12C, > 100 µM (inactive); in the experiment on SW-620, > 100 µM (inactive); in the experiment on T47D, 12.2 µM (inactive).

Turning to `c1ccc(C2=NCCc3cc4c(cc32)OCO4)cc1`, the GI50 was > 100 µM (inactive) in the experiment on A549; > 10 µM (inactive) in the experiment with CCRF-CEM; > 100 µM (inactive) with EKVX; > 100 µM (inactive) in the experiment with HCC 2998; > 100 µM (inactive) in the experiment with Hs-578T; > 100 µM (inactive) with MCF7. The GI50 in the experiment with MDA-MB-231, in the experiment on RXF 393, with SF-268, in the experiment with SF-539, in the experiment with SN12C and in the experiment on SW-620 was > 100 µM (inactive) in each case. The GI50 in the experiment on T47D was > 100 µM (inactive).

In the case of `COc1cc(CNc2nc3cc(C(F)(F)F)ccc3nc2C)cc(OC)c1OC`, the GI50 in the experiment with A549 was 28.4 µM (inactive); with CCRF-CEM, 20.3 µM (inactive); with EKVX it was 17 µM (inactive); in the experiment with HCC 2998, 18.3 µM (inactive); in the experiment with HCT-15, 13.1 µM; in the experiment on Hs-578T it was 13.5 µM (inactive). Also, the GI50 in the experiment on MCF7 is > 10 µM (inactive); in the experiment with MDA-MB-231 it was 14.5 µM (inactive); with MOLT-4, 10.9 µM (inactive); with NCI-H226, > 10 µM (inactive); in the experiment with NCI-H460, 16.3 µM (inactive); in the experiment on RXF 393 it was 16.6 µM (inactive). The GI50 in the experiment on SF-268 is 25.6 µM (inactive); with SF-539 it was 21.6 µM (inactive); in the experiment on SN12C, 14.7 µM (inactive); with SW-620, 17.1 µM (inactive); in the experiment with T47D it was 17.9 µM (inactive).

With `CC(=O)CC(=O)c1cc2c(=O)oc(C)cc2oc1=O`, the GI50 was > 37.5 µM (inactive) in the experiment on A549; > 37.5 µM (inactive) in the experiment with BT-549; > 37.5 µM (inactive) in the experiment on CCRF-CEM; > 37.5 µM (inactive) with EKVX; > 37.5 µM (inactive) in the experiment on HCC 2998; greater than 37.5 µM in the experiment on HCT-15. Also, the GI50 with MCF7, with MOLT-4, in the experiment with NCI-H226, in the experiment with NCI-H460, in the experiment on RXF 393 and with SF-268 was > 37.5 µM (inactive) in each case. For the same molecule, the GI50 in the experiment with SF-539, in the experiment with SN12C and in the experiment with SW-620 was > 37.5 µM (inactive) throughout.

For the molecule `Cc1cccc2c1CC1(Cc3c(C)cccc3C1=O)C2=O`, the GI50 with A549 was > 100 µM (inactive); with CCRF-CEM, > 100 µM (inactive); in the experiment on EKVX, > 100 µM (inactive); in the experiment on HCC 2998 it was > 100 µM (inactive); in the experiment on HCT-15, greater than 100 µM; in the experiment with Hs-578T it was > 100 µM (inactive). Moreover, the GI50 in the experiment on MCF7, with MDA-MB-231, in the experiment with MOLT-4, in the experiment on NCI-H460, in the experiment with RXF 393 and in the experiment with SF-268 was > 100 µM (inactive) in each case. For the same molecule, the GI50 in the experiment with SF-539, with SW-620 and with T47D was > 100 µM (inactive) throughout.

For the molecule `CON(C)C(=O)C1CCCO1` (stereo not drawn), the GI50 in the experiment with A549 was > 100 µM (inactive); in the experiment with CCRF-CEM, > 100 µM (inactive); with EKVX it was 39.5 µM (inactive); with HCT-15, greater than 100 µM; with Hs-578T, > 100 µM (inactive); in the experiment with MCF7, > 100 µM (inactive). For the same molecule, the GI50 in the experiment on MDA-MB-231, in the experiment with MOLT-4, with NCI-H226, in the experiment with NCI-H460, in the experiment on SF-268 and in the experiment with SF-539 was > 100 µM (inactive) throughout. Besides, the GI50 in the experiment on SN12C, in the experiment on SW-620 and in the experiment on T47D was > 100 µM (inactive) each time.

In the case of `O=C(NCCCl)Nc1ccccc1`, the GI50 in the experiment on A549 is > 100 µM (inactive); with CCRF-CEM, > 100 µM (inactive); with EKVX it was > 100 µM (inactive); in the experiment on HCC 2998, > 100 µM (inactive); in the experiment on HCT-15 it was greater than 100 µM; with Hs-578T, > 100 µM (inactive). Besides, the GI50 in the experiment on MCF7, with MDA-MB-231, in the experiment on MOLT-4, in the experiment on NCI-H226, in the experiment on NCI-H460 and with RXF 393 was > 100 µM (inactive) each time. The GI50 in the experiment on SF-268, in the experiment on SN12C, with SW-620 and with T47D was > 100 µM (inactive) each time.

As for `COC(=O)C1=C(\c2ccccc2)c2ccccc2C(=O)N(C2CCCCC2)/C=C\1`, the GI50 is 16 µM (inactive) in the experiment on A549; 23.1 µM (inactive) in the experiment with BT-549; 12 µM (inactive) in the experiment on CCRF-CEM; 52.6 µM (inactive) with EKVX; 10.7 µM (inactive) in the experiment on HCC 2998; 24.1 µM in the experiment on HCT-15. Besides, the GI50 with MCF7 is 19.8 µM (inactive); in the experiment on MDA-MB-231, 17.2 µM (inactive); with MOLT-4, > 100 µM (inactive); in the experiment on NCI-H226 it was 18.2 µM (inactive); in the experiment on NCI-H460, 16.1 µM (inactive); in the experiment on SF-268, 27.8 µM (inactive). Besides, the GI50 in the experiment with SF-539 was 24 µM (inactive); in the experiment with SN12C, 28.3 µM (inactive); with SW-620, 28.6 µM (inactive).

These data come from ChEMBL document CHEMBL1201862, “PubChem BioAssay data set” (2004).
